Assay results: patent US20250333709A1, “BRAIN ENDOTHELIAL CELLS AND METHODS OF MAKING” (President and Fellows of Harvard College, priority 2022, published 2025)
Where two headings read alike, the source gives them in different places.

What was measured:
[1] = test system: iPSC-ECs; assay: GLUT1 and PLVAP expression in iPSC-ECs after Wnt signaling activation (immunostaining, mRNA); type: cell-based, human; conditions: vs. EGM2, FIG. 2A-2C
Source text: CTNNB1::GFP iPSC line (Allen Cell, AICS-0058-067iPSC) was used to visualize subcellular localization of beta-catenin protein. *, P<0.05 vs. EGM2; **, P<0.01 vs. EGM2. Scale bars, 100 um.

[2] = test system: iPSC-ECs; assay: mRNA levels of brain EC genes in iPSC-ECs with HDAC inhibitor, Wnt pathway activator and PKC activator; type: cell-based, human; conditions: 48 hours, presence and absence of quisinostat 10 nM, Chir99021 5 uM, WNT3A 100 ng/ml, IndoV 100 nM, PMA 100 nM, FIG. 5C
Method: FIGS. 5A-5C show overexpression of brain EC-specific transcription factors and inhibition of HDAC induce a subset of brain EC-enriched genes. […] Chir99021, 5 uM; WNT3A, 100 ng/ml; IndoV, 100 nM; PMA, 100 nM, Q, quisinostate 10 nM; 48 hours. *, P<0.05 vs. Control; **, P<0.01 vs. Control.

[3] = test system: iPSC-ECs; conditions: 10 uM for 2 days, FIG. 4A, 4C
Method: Representative immunostaining images of iPSC-ECs after treatment with TGFBR1 inhibitor RepSox (10 uM, FIG. 4A) and human recombinant TGF beta (FIG. 4B). […] All compounds were treated at 10 uM concentrations for 2 days. […] Scale bars, 100 um.

[4] = test system: iPSC-ECs; assay: Brain EC gene regulation in iPSC-ECs exposed to a combination of WNT3A, CNTF and RepSox; type: cell-based, human; conditions: FIG. 4D
[5] = test system: iPSC-ECs; assay: CLDN5 expression in CNTF-treated iPSC-ECs (immunostaining); type: cell-based, human; conditions: CNTF 20 ng/ml, CNTFRa 100 ng/ml, FIG. 3
Method: FIG. 3A illustrates iPSC-ECs exposed to either fresh astrocyte medium (AM) or astrocyte-conditioned medium (ACM). Conditioned medium was collected for 48 hours. Both AM and ACM were treated as 1:1 mixture with EC medium (EGM2). […] Human recombinant ciliary neurotrophic factor (CNTF), 20 ng/ml; human recombinant CNTF receptor alpha (CNTFRa), 100 ng/ml. […] PM and PCM were treated as 1:1 mixture with EGM2 for 2 days. […] Scale bars, 100 um.

Cc1c[nH]c(-c2cnc(NCCNc3ccc(C#N)cn3)nc2-c2ccc(Cl)cc2Cl)n1 [Chir99021]
GLUT1 expression [1]: upregulates | PLVAP expression [1]: downregulates | expression of ABCB1 (mRNA) [2]: induce | expression of MFSD2A (mRNA) [2]: induce

CC(C)[C@H]1C(=O)N[C@H](CO)Cc2c[nH]c3cccc(c23)N1C [IndoV]
expression of ABCB1 (mRNA) [2]: induce | expression of MFSD2A (mRNA) [2]: induce

CCCCCCCCCCCCCC(=O)O[C@@H]1[C@@H](C)[C@@]2(O)[C@@H](C=C(CO)C[C@]3(O)C(=O)C(C)=C[C@@H]23)[C@@H]2C(C)(C)[C@]12OC(C)=O [PMA]
expression of ABCB1 (mRNA) [2]: induce | expression of MFSD2A (mRNA) [2]: induce

Cc1cccc(-c2[nH]ncc2-c2ccc3ncccc3n2)n1 [RepSox]
CLDN5 expression [3]: increase | effect on brain EC gene regulation [4]: additive effect

B1: ciliary neurotrophic factor (protein, UniProt P26441 1-200, looked up)
Ciliary neurotrophic factor: MAFTEHSPLTPHRRDLCSRSIWLARKIRSDLTALTESYVKHQGLNKNINLDSADGMPVASTDQWSELTEAERLQENLQAYRTFHVLLARLLEDQQVHFTPTEGDFHQAIHTLLLQVAAFAYQIEELMILLEYKIPRNEADGMPINVGDGGLFEKKLWGLKVLQELSQWTVRSIHDLRFISSHQTGIPARGSHYIANNKKM
notes: Human recombinant ciliary neurotrophic factor, 20 ng/ml
CLDN5 expression [5]: increases | effect on brain EC gene regulation [4]: additive effect

B2: WNT3A: Wnt ligand used at 100 ng/ml to activate Wnt signaling in iPSC-ECs (protein, UniProt P56704 19-352, looked up)
Protein Wnt-3a: SYPIWWSLAVGPQYSSLGSQPILCASIPGLVPKQLRFCRNYVEIMPSVAEGIKIGIQECQHQFRGRRWNCTTVHDSLAIFGPVLDKATRESAFVHAIASAGVAFAVTRSCAEGTAAICGCSSRHQGSPGKGWKWGGCSEDIEFGGMVSREFADARENRPDARSAMNRHNNEAGRQAIASHMHLKCKCHGLSGSCEVKTCWWSQPDFRAIGDFLKDKYDSASEMVVEKHRESRGWVETLRPRYTYFKVPTERDLVYYEASPNFCEPNPETGSFGTRDRTCNVSSHGIDGCDLLCCGRGHNARAERRREKCRCVFHWCCYVSCQECTRVYDVHTCK
GLUT1 expression [1]: upregulates | PLVAP expression [1]: downregulates | effect on brain EC gene regulation [4]: additive effect | expression of ABCB1 (mRNA) [2]: induce | expression of MFSD2A (mRNA) [2]: induce
